# Values of other authors in patent publication US6426091B1, “Sustained-release theophylline tablet” (Nikken Chemicals Co., Ltd., priority 1997, dated 2002).
compound,measurement,setting,value
Cn1c(=O)c2[nH]cnc2n(C)c1=O [Theophylline],biological half-life,adults,about 6 hours
same,"concentration in the blood above which serious side effects (cardiovascular system, central nervous system) sometimes appear",background art,exceeds 20 μg/ml
